{
  "source": "patent US20140315738A1",
  "about": "“MARINE MEDAKA GENES RESPONDING TO THE EXPOSURE OF ENDOCRINE-DISRUPTING CHEMICALS, AND METHOD FOR DIAGNOSING AN AQUATIC ECO-SYSTEM CONTAMINATION USING SAME” (priority 2011, published 2014)",
  "tested_on": "Javanese medaka (Oryzias javanicus) livers",
  "assay": "real-time quantitative PCR of liver gene expression after exposure to BPA",
  "type": "in vivo",
  "settings": "76 μg/L, 48 hr, β-actin control gene",
  "procedure": "To 3 L beaker with 2 L filtered seawater therein, 10 male Javanese medaka bred in culture water tank were transported each time, and acclimated for 24 hr. […] Additionally, five Javanese medaka of Example <1-1> were exposed to BPA (76 μg/L) for 48 hr. […] The Javanese medaka was transported to ice water, one at a time, which momentarily stunned it, followed by beheading and evisceration and liver removal.\nPrimers for real-time quantitative PCR (RT-PCR) for the above genes were designed and synthesized, and sequences of the primers of the genes for real time quantitative PCT are listed in Table 6 below.\nWith RNA template extracted with the method of Example <2-1>, cDNA was synthesized using AB High Capacity RAN-to-cDNA Kit (Applied Biosystems, USA). RNA in the amount of 1 μg was seeded, added with distilled water and titrated to 9 μl. 2×RT buffer (10 μl), and 20× enzyme Mix 1 μl were mixed well, centrifuged and precipitated, and allowed to react at 37° C. for 60 min. The reactant was heated at 95° C. for 5 min, after which reaction was completed. The synthesized cDNA was stored at −20° C.\nTo the 0.5 μg synthesized cDNA (corresponding to approximately 10 ng/μl), 0.8 primer pairs of corresponding genes (10 pmol/μl), and 2 SYBR1 mixture (10 μl) were added. The final amount was titrated to 20 μl using distilled water. At temperature condition of 95° C. 10 min, 95° C. 30 sec, 60° C. 30 sec, 72° C. 30 sec, 40 cycles of PCR were conducted.\nCT values of the respective samples after exposure to BPA between control genes (β-actin) and genes of interest were compared with each other, and the relative expression differences of the genes of interest were quantified into relative values according to Relative Standard Curve (Table 7).",
  "data": [
    {"compound": "CC(C)(c1ccc(O)cc1)c1ccc(O)cc1", "note": "[BPA, Bisphenol A]", "values": [
      {"measurement": "Fold difference, Apolipoprotein E1 (AP)", "result": "+2.30 fold"},
      {"measurement": "Fold difference, Arylamine N-acetyl transferase (ANAT)", "result": "−1.69", "unit": "fold"},
      {"measurement": "Fold difference, Basigin (Bsgn)", "result": "+4.25 fold"},
      {"measurement": "Fold difference, C1q-like adipose specific protein (C-ASP)", "result": "−2.17", "unit": "fold"},
      {"measurement": "Fold difference, Calcium binding protein P22 (CBP-P22)", "result": "+1.19 fold"},
      {"measurement": "Fold difference, Catalase (Cat)", "result": "−1.49", "unit": "fold"},
      {"measurement": "Fold difference, Ceruloplasmin (Cer)", "result": "+2.09 fold"},
      {"measurement": "Fold difference, Chitinase (Chi)", "result": "−5.56", "unit": "fold"},
      {"measurement": "Fold difference, Choline kinase (Chka)", "result": "+4.18 fold"},
      {"measurement": "Fold difference, Choriogenin L (ChL)", "result": "+50.00 fold"},
      {"measurement": "Fold difference, Complement component C8 beta (C8)", "result": "−1.37", "unit": "fold"},
      {"measurement": "Fold difference, Complement factor B/C2-B (CF-B/C2)", "result": "−2.27", "unit": "fold"},
      {"measurement": "Fold difference, Delta 6-desaturase (FD6D)", "result": "+1.43 fold"},
      {"measurement": "Fold difference, Delta-6 fatty acyl desaturase (FADSD6)", "result": "−1.39", "unit": "fold"},
      {"measurement": "Fold difference, Glutaminase (Gls)", "result": "−1.35", "unit": "fold"},
      {"measurement": "Fold difference, Glutathione S-transferase (Gst)", "result": "−1.85", "unit": "fold"},
      {"measurement": "Fold difference, Hepcidin (Hep)", "result": "−1.14", "unit": "fold"},
      {"measurement": "Fold difference, Leukocyte elastase inhibitor (LE)", "result": "+1.12 fold"},
      {"measurement": "Fold difference, Lipoprotein lipase (LPL)", "result": "+1.11 fold"},
      {"measurement": "Fold difference, N-acetyltransferase (NAT13)", "result": "−2.50", "unit": "fold"},
      {"measurement": "Fold difference, Plasminogen (Plg)", "result": "+1.25 fold"},
      {"measurement": "Fold difference, Retinol binding protein 4 (RBP4)", "result": "+1.12 fold"},
      {"measurement": "Fold difference, Ring finger protein 141 (RFP)", "result": "+1.23 fold"},
      {"measurement": "Fold difference, TBT-binding protein (TBT-bp)", "result": "−1.66", "unit": "fold"},
      {"measurement": "Fold difference, Transferrin (TF)", "result": "−1.30", "unit": "fold"},
      {"measurement": "Fold difference, Uridine phosphorylase 2 (Upp2)", "result": "−1.72", "unit": "fold"},
      {"measurement": "Fold difference, Vitellogenin 1 (Vit1)", "result": "−100.00", "unit": "fold"},
      {"measurement": "Fold difference, Warm temperature acclimation (C243) (Wap65)", "result": "+1.07 fold"}
    ]}
  ]
}
